Like-named read-outs stand apart in the source and are kept apart here.
Tests used:
BuChE from human serum = BuChE from human serum (Homo sapiens, UniProt P06276); experiment: biochemical; assay type: biochemical; settings: for inhibition at 100 µg/mL: read-out: Inhibition hBuChE at 100 µg/mL % ± SD
male Swiss mice = tested on: male Swiss mice; design: method as in PMID 29186770; settings: single dose 20 mg kg−1 b.w.; cited from earlier work
Human recombinant AChE = Human recombinant AChE (Homo sapiens, UniProt P22303); experiment: biochemical; settings: for inhibition at 100 µg/mL: read-out: Inhibition hAChE at 100 µg/mL % ± SD
Chain of Human recombinant AChE (P22303 32-614): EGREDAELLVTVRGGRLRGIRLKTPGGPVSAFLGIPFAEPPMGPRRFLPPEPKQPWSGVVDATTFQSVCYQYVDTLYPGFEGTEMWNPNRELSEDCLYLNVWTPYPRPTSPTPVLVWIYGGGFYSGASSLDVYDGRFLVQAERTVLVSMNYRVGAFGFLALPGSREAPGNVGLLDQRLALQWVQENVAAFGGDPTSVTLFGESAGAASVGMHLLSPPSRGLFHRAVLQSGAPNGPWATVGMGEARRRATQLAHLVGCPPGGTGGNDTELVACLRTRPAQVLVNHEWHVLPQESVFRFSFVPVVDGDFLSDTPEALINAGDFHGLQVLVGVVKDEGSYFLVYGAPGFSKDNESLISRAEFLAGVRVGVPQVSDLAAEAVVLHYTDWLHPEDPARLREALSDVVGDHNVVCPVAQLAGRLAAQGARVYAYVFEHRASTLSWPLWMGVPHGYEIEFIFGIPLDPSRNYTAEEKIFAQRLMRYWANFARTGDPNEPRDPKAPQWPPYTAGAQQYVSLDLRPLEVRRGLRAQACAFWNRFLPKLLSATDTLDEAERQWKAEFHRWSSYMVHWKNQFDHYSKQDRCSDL

Aβ1–42 = tested on: T1, Aβ1–42; experiment: Inhibition of Aβ1–42 self-aggregation, thioflavin T fluorescence assay; assay type: biochemical; settings: 1:1 molar ratio with Aβ (50 μM), 30 °C, 24 h
T1 construct: 42-aminoacid long Aβ peptide (Aβ1–42) self-aggregation; purchased Bachem AG, Bubendorf, Switzerland
Experimental: As reported in the previously published protocol by Bartolini et al., 1,1,1,3,3,3,hexafluoro 2-propanol pre-treated Aβ1–42 samples (Bachem AG, Bubendorf, Switzerland) were solubilized with a AcCN/0.3 mM Na2CO3/250 mM NaOH (48.4/48.4/3.2) mixture to obtain a 500 μM stock solution. Experiments were performed by diluting (final Aβ concentration 50 μM) and incubating the peptide in 10 mM phosphate buffer (pH = 8.0) containing 10 mM NaCl, at 30 °C for 24 h with and without nitidine (50 μM, Aβ/nitidine = 1/1). A blank sample containing nitidine was also prepared. To quantify amyloid fibril formation, the thioflavin T fluorescence method was used. After incubation, samples were diluted to a final volume of 2.0 mL with 50 mM glycine-NaOH buffer (pH 8.5) containing 1.5 μM thioflavin T. A 300-second time scan of fluorescence intensity was carried out (λexc = 446 nm; λem = 490 nm, FP-6200 fluorometer, Jasco Europe, Cremella, Italy), and values at plateau were averaged after subtracting the background fluorescence of 1.5 μM thioflavin T solution. The fluorescence intensities obtained in the absence and in the presence of nitidine were compared and the percent inhibition due to the presence of nitidine was calculated by the following formula: 100 − (100 × IFi/IFo), where IFi and IFo are the fluorescence intensities obtained for Aβ1–42 in the presence and in the absence of nitidine, respectively.

Aβ = settings: cited from earlier work
human cholinesterases = settings: cited from earlier work

Chain of BuChE from human serum (P06276 29-602): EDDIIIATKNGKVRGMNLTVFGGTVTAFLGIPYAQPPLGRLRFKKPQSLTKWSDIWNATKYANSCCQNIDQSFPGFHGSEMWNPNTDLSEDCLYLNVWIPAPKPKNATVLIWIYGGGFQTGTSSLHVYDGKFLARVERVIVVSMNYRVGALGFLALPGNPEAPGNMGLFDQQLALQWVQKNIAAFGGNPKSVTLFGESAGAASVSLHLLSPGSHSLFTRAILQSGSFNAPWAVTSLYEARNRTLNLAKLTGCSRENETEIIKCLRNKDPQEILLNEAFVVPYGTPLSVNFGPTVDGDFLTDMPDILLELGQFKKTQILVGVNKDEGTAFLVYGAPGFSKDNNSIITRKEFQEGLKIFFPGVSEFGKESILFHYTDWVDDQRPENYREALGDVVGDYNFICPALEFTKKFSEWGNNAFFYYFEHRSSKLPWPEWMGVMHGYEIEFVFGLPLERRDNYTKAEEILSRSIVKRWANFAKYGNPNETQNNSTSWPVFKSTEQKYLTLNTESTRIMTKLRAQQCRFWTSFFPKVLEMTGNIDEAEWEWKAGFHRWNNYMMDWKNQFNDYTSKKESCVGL

Compound `COc1ccc2c3c1O[C@H]1C[C@@H](O)C=C[C@@]31CCN(C)C2` [Galanthamine, reference compound] has an inhibition at 100 µg/mL (BuChE from human serum) of over 90%.

For `COc1ccc2c(c1O)-c1c(O)c(OC)cc3c1[C@H](C2)[N+](C)(C)CC3` [Magnoflorine (PC1), Magnoflorine], the “cognitive functions in a passive avoidance test” value (male Swiss mice) is given as “significantly enhanced”, the “long-term scopolamine-induced memory impairment” value (male Swiss mice) is given as “able to reverse” and the IC50 (Human recombinant AChE; read-out: IC50 hAChE µM ± SD) is given as 1120 ± 83 µM. For the same compound, the inhibition at 100 µg/mL (Human recombinant AChE) was 19 ± 2.9%, the IC50 (BuChE from human serum; read-out: IC50 hBuChE µM ± SD) was 131 ± 9 µM and the inhibition at 100 µg/mL (BuChE from human serum) was 69.9 ± 2.4%. The selectivity index (BuChE from human serum; selective for hBuChE over hAChE) was 8.5.

In the case of `COc1cc2c[n+](C)c3c4cc5c(cc4ccc3c2cc1OC)OCO5` [Nitidine (PC3), 2,3-dimethoxy-12-methyl-[1,3]benzodioxolo[5,6-c]phenanthridin-12-ium], the “inhibition percentage of Aβ1–42 self-aggregation” value (Aβ1–42) is reported as 15.9 ± 1.0, the IC50 (Human recombinant AChE) is reported as 5.31 ± 0.5 µM and the inhibition at 100 µg/mL (Human recombinant AChE) is reported as over 90%. The IC50 (BuChE from human serum) was 6.68 ± 0.13 µM and the inhibition at 100 µg/mL (BuChE from human serum) was over 90%.

For `COc1ccc2c(c[n+](C)c3c4cc5c(cc4ccc23)OCO5)c1OC` [chelerythrine, 1,2-dimethoxy-12-methyl[1,3]benzodioxolo[5,6-c]phenanthridin-12-ium], the “inhibition of Aβ self-aggregation” value (Aβ) is given as “significantly inhibit” and the “inhibition of human cholinesterases” value (human cholinesterases) is given as “micromolar inhibitor”.
